# Several values for one entry are separate records, joined by “and”; a condition that tells them apart may be missing. Equal values may be shown once. Marks after values point to notes of the source that are not given here. Square brackets hold non-standard residues; d marks the D form. Ends that are not written are not given here. Peptide text beside a SMILES is read from it.
# Key:
# [1] = Pharmacokinetic study of BNP conjugates, single IV dose in rats; format: in vivo, Sprague-Dawley rats; settings: for Cmax: test article in plasma (non-releasable PEG-BNP or native BNP)
# Source text: All animals were food fasted overnight.
# Following the last collection point, the animals were euthanized. […]
# [2] = target: T1, GPR54 G-Protein coupled receptor (Homo sapiens, UniProt Q969F8); assay: FLIPR calcium flux agonist assay on GPR54; format: cell-based; settings: no release incubation
# T1 construct: host or cells: Chem-1 host cells
# [3] = Pharmacokinetic study of protegrin conjugates, single IV dose in rats; format: in vivo, Sprague-Dawley rats
# Description: The weight range of the animals was 313-346 grams. All animals were food fasted overnight.
# Following the last collection point, the animals were euthanized. Bioanalytical analysis: analysis of the plasma samples was conducted using non-validated LC-MS/MS methods.
# [4] = Pharmacokinetic study of V681 (V13AD) conjugates, single IV dose in rats; format: in vivo, Sprague-Dawley rats; settings: 1.0 mg/kg equivalent protein mass IV
# Source text: The weight range of the animals was 311-346 grams. All animals were food fasted overnight. […] The predose sample was collected from the JVC.
# Following the last collection point, the animals were euthanized.
# [5] = test system: db/db diabetic mice; assay: Blood glucose levels in db/db diabetic mice after i.p. injection; format: in vivo
# Description: At different time points after dosing blood glucose levels were measured.
# PBS saline solution and Dextran equivalent dose were administrated as negative controls.
# [6] = rat, in vivo, protegrin-1 in plasma (released or native), 1.6 mg/kg equivalent protein mass IV
# [7] = test compound in plasma (non-releasable conjugates, native PG-1), […] equivalent protein mass IV, Mean ± SD
# [8] = protegrin-1 in plasma (released or native), […] equivalent protein mass IV
# [9] = 0.459 mg/kg equivalent protein mass IV, rats
# [10] = test article in plasma (non-releasable PEG-BNP), 0.459 mg/kg equivalent protein mass IV, rats
# [11] = BNP in plasma (released from conjugate or given as native), 0.459 mg/kg equivalent protein mass IV, rats
# [12] = intact C2-FMOC-PEG2-40K-BNP, IV bolus, rats
# T1 sequence (Q969F8 whole entry): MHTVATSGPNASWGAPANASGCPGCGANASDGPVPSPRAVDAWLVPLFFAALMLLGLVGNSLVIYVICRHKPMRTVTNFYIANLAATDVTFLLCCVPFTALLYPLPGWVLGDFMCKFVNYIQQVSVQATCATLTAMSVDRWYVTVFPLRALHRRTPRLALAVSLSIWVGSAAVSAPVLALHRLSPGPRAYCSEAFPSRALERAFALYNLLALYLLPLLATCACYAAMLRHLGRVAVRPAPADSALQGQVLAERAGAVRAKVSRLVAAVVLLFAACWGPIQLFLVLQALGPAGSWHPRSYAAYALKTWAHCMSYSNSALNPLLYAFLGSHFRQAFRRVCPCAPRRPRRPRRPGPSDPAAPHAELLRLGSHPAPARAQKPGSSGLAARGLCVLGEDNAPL
molecule,measurement,setting,value
"CC[C@H](C)[C@@H]1NC(=O)[C@H](CCCNC(=N)N)NC(=O)[C@H](CC(=O)O)NC(=O)[C@H](CCSC)NC(=O)[C@H](CCCCN)NC(=O)[C@H](CCCNC(=N)N)NC(=O)CNC(=O)[C@H](Cc2ccccc2)NC(=O)[C@@H](NC(=O)CNC(=O)[C@H](CO)NC(=O)CNC(=O)[C@H](CCC(N)=O)NC(=O)[C@@H](NC(=O)[C@H](CCSC)NC(=O)[C@H](CCCCN)NC(=O)[C@@H]2CCCN2C(=O)[C@@H](N)CO)C(C)C)CSSC[C@@H](C(=O)N[C@@H](CCCCN)C(=O)N[C@H](C(=O)N[C@@H](CC(C)C)C(=O)N[C@@H](CCCN=C(N)N)C(=O)N[C@@H](CCCN=C(N)N)C(=O)N[C@@H](Cc2cnc[nH]2)C(=O)O)C(C)C)NC(=O)CNC(=O)[C@H](CC(C)C)NC(=O)CNC(=O)[C@H](CO)NC(=O)[C@H](CO)NC(=O)[C@H](CO)NC(=O)[C@H](CO)NC1=O [BNP, Brain Natriuretic Peptide (BNP-32), reference compound]",level at 0.03 h,"[1]; male, Sprague-Dawley, rat, plasma, 0.03 hr after IV BNP administration, all animals, read-out: plasma concentration at first time point",< 20 ng/mL
"CC(C)C[C@H](NC(=O)CNC(=O)[C@H](Cc1ccccc1)NC(=O)[C@H](CO)NC(=O)[C@H](CC(N)=O)NC(=O)[C@H](Cc1c[nH]c2ccccc12)NC(=O)[C@H](CC(N)=O)NC(=O)[C@@H](N)Cc1ccc(O)cc1)C(=O)N[C@@H](CCCNC(=N)N)C(=O)N[C@@H](Cc1ccccc1)C(N)=O [KP10, Kisspeptin-10]",EC50,[2]; agonist activation at GPR54,10 to 14 nM and 10 nM
same,Fold change compared to metastin,[2],1
"CC(C)C[C@H](NC(=O)CNC(=O)[C@H](Cc1ccccc1)NC(=O)[C@H](CO)NC(=O)[C@H](CC(N)=O)NC(=O)[C@H](Cc1c[nH]c2ccccc12)NC(=O)[C@H](CC(N)=O)NC(=O)[C@H](Cc1ccc(O)cc1)NC(=O)[C@H](CC(N)=O)NC(=O)[C@@H]1CCCN1C(=O)[C@@H](N)CC(C)C)C(=O)N[C@@H](CCCNC(=N)N)C(=O)N[C@@H](Cc1ccccc1)C(N)=O [KP13, Kisspeptin-13]",EC50,[2]; agonist activation at GPR54,11 nM
same,Fold change compared to metastin,[2],1
"CC(C)C[C@H](NC(=O)[C@H](CCCNC(=N)N)NC(=O)CNC(=O)CNC(=O)[C@@H](N)CCCNC(=N)N)C(=O)N[C@H]1CSSC[C@@H](C(=O)N[C@H](C(=O)NCC(=O)N[C@@H](CCCNC(=N)N)C(N)=O)C(C)C)NC(=O)[C@H](C(C)C)NC(=O)[C@@H]2CSSC[C@H](NC(=O)[C@H](Cc3ccc(O)cc3)NC1=O)C(=O)N[C@@H](CCCNC(=N)N)C(=O)N[C@@H](CCCNC(=N)N)C(=O)N[C@@H](CCCNC(=N)N)C(=O)N[C@@H](Cc1ccccc1)C(=O)N2 [Protegrin-1, reference compound]",AUC(0-inf),[3]; [6],1160 ± 351 ng·h/mL
same,Cmax,[3]; [6],2050 ± 601 ng/mL
same,MRT last,[3]; [6],31.2 ± 3 min
same,half-life,[3]; [6],21 min
same,Tmax,"[3]; rat, in vivo, protegrin-1 in plasma (released or native), 1.6 mg/kg equivalent protein mass IV, read-out: Tmax",1.8 min
same,clearance,"[3]; rat, in vivo, test compound in plasma (non-releasable conjugates, native PG-1), 1.6 mg/kg equivalent protein mass IV, Mean ± SD",24.5 mL/min/kg
same,Vd,"[3]; rat, in vivo, test compound in plasma (non-releasable conjugates, native PG-1), 1.6 mg/kg equivalent protein mass IV, Mean ± SD, read-out: Vss",0.848 ± 0.36 L/kg
"CC[C@H](C)[C@H](NC(=O)[C@H](C)NC(=O)[C@H](CCCCN)NC(=O)[C@H](CC(C)C)NC(=O)[C@H](C)NC(=O)[C@@H](NC(=O)[C@H](Cc1c[nH]cn1)NC(=O)[C@H](CC(C)C)NC(=O)[C@@H](NC(=O)[C@@H](NC(=O)[C@H](CCCCN)NC(=O)[C@@H](C)NC(=O)[C@H](C)NC(=O)[C@H](CO)NC(=O)[C@H](CCCCN)NC(=O)[C@H](Cc1ccccc1)NC(=O)[C@@H](NC(=O)[C@H](CCCCN)NC(=O)[C@H](CC(C)C)NC(=O)[C@H](Cc1ccccc1)NC(=O)[C@H](CO)NC(=O)[C@H](CCCCN)NC(=O)[C@H](Cc1c[nH]c2ccccc12)NC(=O)[C@H](CCCCN)NC(C)=O)[C@@H](C)O)[C@@H](C)O)C(C)C)[C@@H](C)O)C(=O)N[C@@H](CO)C(=O)N[C@@H](CO)C(N)=O [V681 (V13AD), V681(V13AD), reference compound] (Ac-KWKSFLKTFKSA[dA]KTVLHTALKAISS-NH2)",AUCINF,[4],7210 ± 1430 ng·h/mL
same,CL,[4],2.37 ± 0.433 mL/min/kg
same,Cmax,[4],16500 ± 9670 ng/mL
same,MRT,[4],19.8 ± 4.8 min
same,T1/2,[4],36.6 ± 23.4 min
same,Vss,[4],0.0477 ± 0.018 L/kg
"(PG-1)-(ALD)22K-(PG-1) (RGGRLCYCRRRFCVCVGR-NH2; cysteine pairing not given here; also: two peptide copies linked by PEG-dibutyraldehyde 2K; UniProt P32194 131-148, looked up) [PG-1-PEG-2K-PG-1, non-releasable di-peptide conjugate with bi-functional PEG-butyraldehyde-2K]",CL,[3]; [7],3.48 ± 0.455 mL/min/kg
same,T1/2,[3]; [7],438 ± 66 min
same,Vss,[3]; [7],0.432 ± 0.0405 L/kg
"ALD40K-PG-1 (RGGRLCYCRRRFCVCVGR-NH2; cysteine pairing not given here; also: mPEG2-butyraldehyde 40K conjugate; UniProt P32194 131-148, looked up) [mPEG2-40K-PG-1, non-releasable conjugate of protegrin-1 with mPEG2-butaraldehyde-40K]",CL,[3]; [7],0.548 ± 0.207 mL/min/kg
same,T1/2,[3]; [7],648 ± 180 min
same,Vss,[3]; [7],0.32 ± 0.131 L/kg
"GTSLSPPPESSGSPQQPGLSAPHSRQIPAPQGAVLVQREKDLPNYNWNSFGLRF-NH2 [KP54, Kisspeptin-54]",EC50,[2]; agonist activation at GPR54,190 nM
same,Fold change compared to metastin,[2],16
Insulin,"Blood glucose level, Mean","[5]; Ins 5 ug/mouse, time 0 hr, N = 5",510 mg/dL
same,"Blood glucose level, Mean","[5]; Ins 5 ug/mouse, time 1 hr, N = 5",265 mg/dL
same,"Blood glucose level, Mean","[5]; Ins 5 ug/mouse, time 2 hr, N = 5",352 mg/dL
same,"Blood glucose level, Mean","[5]; Ins 5 ug/mouse, time 4 hr, N = 5",587 mg/dL
same,"Blood glucose level, Mean","[5]; Ins 5 ug/mouse, time 8 hr, N = 5",538 mg/dL
same,"Blood glucose level, Mean","[5]; Ins 5 ug/mouse, time 24 hr, N = 5",538 mg/dL
same,"Blood glucose level, Mean","[5]; Ins 50 ug/mouse, time 0 hr, N = 5",445 mg/dL
same,"Blood glucose level, Mean","[5]; Ins 50 ug/mouse, time 1 hr, N = 5",210 mg/dL
same,"Blood glucose level, Mean","[5]; Ins 50 ug/mouse, time 2 hr, N = 5",150 mg/dL
same,"Blood glucose level, Mean","[5]; Ins 50 ug/mouse, time 4 hr, N = 5",550 mg/dL
same,"Blood glucose level, Mean","[5]; Ins 50 ug/mouse, time 8 hr, N = 5",558 mg/dL
same,"Blood glucose level, Mean","[5]; Ins 50 ug/mouse, time 24 hr, N = 5",541 mg/dL
"[mono]-[4,7-CG-PEG2-FMOC-NHS-40K]-[protegrin-1] (RGGRLCYCRRRFCVCVGR-NH2; cysteine pairing not given here; also: releasable CG-PEG2-FMOC 40K PEG, site not given here; UniProt P32194 131-148, looked up) [CG-PEG2-FMOC-40K-PG-1, releasable PEG conjugate of protegrin-1]",T1/2 (hr),[3]; [8],1.95* hr
same,Tmax,[3]; [8],1.8 min
[mono]-[mPEG2-Butyr-ALD-40K]-[BNP-32] [ButyrALD-40K-BNP],Cmax,[1]; [9],1410 ng/mL
same,AUCINF,[1]; [10],41300 ng·h/mL
same,CL,[1]; [10],0.185 mL/min/kg
same,MRTlast,[1]; [10],1440 min
same,T½,[1]; [10],1570 min
same,Vss,[1]; [10],0.631 L/kg
[mono]-[mPEG2-C2-fmoc-NHS-40K]-[BNP-32] [C2-FMOC-PEG2-40K-BNP],AUCINF,[1]; [11],162 ng·h/mL
same,MRTlast,[1]; [11],110 min
same,Tmax,"[1]; BNP in plasma (released from conjugate or given as native), 0.459 mg/kg equivalent protein mass IV, rats, 0.459 mg/kg",18 min and 19.8 min
same,time released BNP stayed above 20 ng/mL,[1]; following C2-FMOC-PEG2-40K-BNP IV dosing,8 h
same,Peak concentration of the conjugate in plasma,[1]; [12],1300 ng/mL
same,half-life of the conjugate in plasma,[1]; [12],900 min
same,time plasma conjugate concentrations remained above 100 ng/mL,[1]; [12],24 h
[mono]-[mPEG-Butyr-ALD-10K]-[BNP-32] [ButyrALD-10K-BNP],Cmax,[1]; [9],355 ng/mL
same,AUCINF,[1]; [10],96.6 ng·h/mL
same,CL,[1]; [10],79.17 mL/min/kg
same,MRTlast,[1]; [10],22.1 min
same,T½,[1]; [10],16.3 min
same,Vss,[1]; [10],2.27 L/kg
"[mono]-[mPEG-ButyrALD-30K]-[Kisspeptin-13] (LPNYNWNSFGLRF; also: mono-PEGylated with mPEG-ButyrALD 30K, site not given here; UniProt Q15726 109-121, looked up) [Ald30K-KP13]",EC50 (nM),[2]; agonist activation at GPR54,No activity
dextran-butyrALD-40K-insulin [Dex-Ins],"Blood glucose level, Mean","[5]; Dex-Ins 250 ug/mouse i.p., time 0 hr, N = 4",495 mg/dL
same,"Blood glucose level, Mean","[5]; Dex-Ins 250 ug/mouse i.p., time 1 hr, N = 4",263 mg/dL
same,"Blood glucose level, Mean","[5]; Dex-Ins 250 ug/mouse i.p., time 2 hr, N = 4",192 mg/dL
same,"Blood glucose level, Mean","[5]; Dex-Ins 250 ug/mouse i.p., time 4 hr, N = 4",462 mg/dL
same,"Blood glucose level, Mean","[5]; Dex-Ins 250 ug/mouse i.p., time 8 hr, N = 4",494 mg/dL
same,"Blood glucose level, Mean","[5]; Dex-Ins 250 ug/mouse i.p., time 24 hr, N = 4",517 mg/dL
same,decrease of db/db mice glucose levels,"[5]; at 1 hr and 2 hr after administration, 250 ug/mouse i.p.",40-60%

# Reference: patent US20110166063A1 (priority 2008, published 2011)
